Measured values published in US20140249143A1, “Compounds And Methods For Enhancing Innate Immune Responses” (GlaxoSmithKline LLC, priority 2011, published 2014).

Assays:
[1] = test system: ISGs and cytokines mRNA; assay: Dose response of ISG induction in vivo; parameters: species or system CD-1 mice; settings: 0, 200, 600, 1000 mg/kg oral gavage, 24 h, blood and tissues
Procedure: Naive male CD-1 mice were obtained from Charles Rivers Laboratories (Wilmington, Mass.) and administered with Example 11 in a dose response (0, 200, 600, and 1000 mg/kg; three mice per dose group) by oral gavage. The dose of 200 mg/kg was in 0.5% HPMC/0.1% Tween 80 whereas the rest of doses were in 30% solutol/70% PEG400. At 24 h, the blood and tissues were collected and processed as described above. The gene expressions of various ISGs and cytokines were monitored by real time RT-PCR (see above for the details).

[2] = test system: reconstructed human epidermis (RHE) keratinocytes; assay: JAK/STAT induction in reconstructed human epidermis (western blot, real-time PCR); type: cell-based; settings: 10 μM (IFN-alpha 100 U/mL), 6 and 72 hrs
Procedure: First, reconstructed human epidermis (“RHE”) consisting of cultured human keratinocyte cells were incubated in triplicate with media containing either the media alone, media+0.1% DMSO, media containing 10 μM of several putative JAK/STAT activator compounds described herein in Tables 1 and 2 (Example 1, Example 2, Example 11, and compound no. 89 (as a negative control)), or media containing 100 U/mL of a positive control Interferon-alpha (IFN-alpha) recombinant protein at 37° C. in a humidified atmosphere containing 5% CO2, for 6 and 72 hours.
At the end of the incubation period, the RHE tissues were cut into two sections. One section was ¼ of the total size and the second section was […].

[3] = test system: HCV genotype 1b subgenomic replicon; assay: Anti-Hepatitis C replicon assay, genotype 1b (luciferase); type: cell-based; settings: Hepatitis C virus; luciferase activity measured 48 hours later; read-out: HCV Genotype 1B Replicon pEC50 (converted)
Procedure: (§1) Compounds were assayed for activity against HCV using the genotype 1a and 1b subgenomic replicon model systems. Stable cell lines bearing the genotype 1a and 1b replicons were used for screening of compounds. Both replicons are bicistonic and contain the firefly luciferase gene. The ET cell line is stably transfected with RNA transcripts harboring a I389luc-ubi-neo/NS3-3′/ET replicon with firefly luciferase-ubiquitin-neomycin phosphotransferase fusion protein and EMCV-IRES driven NS3-5B polyprotein containing the cell culture adaptive mutations (E1202G; T1280I; K1846T) (Krieger at al, 2001 and unpublished). The genotype 1a replicon is a stable cell line licensed from Apath LLC, modified to contain the firefly luciferase gene. The cells were grown in DMEM, supplemented with 10% fetal calf serum, 2 mM Glutamine, Penicillin (100 IU/mL)/Streptomycin (100 μg/mL), 1× nonessential amino acids, and 250-500 μg/mL G418 (“Geneticin”). They were all available through Life Technologies (Bethesda, Md.). The cells were plated at 0.5×10^4 cells/well in 384 well plates containing compounds. The final concentration of compounds ranged between 0.03 pM to 50 μm and the final DMSO concentration of 0.5-1%.
(§2) Luciferase activity was measured 48 hours later by adding a Steady glo (Promega, Madison, Wis.). Percent inhibition of replication data was plotted relative to no compound control. Under the same condition, cytotoxicity of the compounds was determined using cell titer glo (Promega, Madison, Wis.). IC50s were determined from a 10 point dose response curve using 3-4-fold serial dilution for each compound, which spans a concentration range>1000 fold. BioAssay determines the level of inhibition for each compound by normalizing cross-talk corrected plate values against the negative (low or background, cells with no compound present) and positive (high DMSO, no cells) controls to determine Percent Inhibition:
(§3) These normalized values are exported to IC50 where they are plotted against the molar compound concentrations using the standard four parameter logistic equation: […]

[4] = test system: HCV genotype 1a subgenomic replicon; assay: Anti-Hepatitis C replicon assay, genotype 1a (luciferase); type: cell-based; settings: Hepatitis C virus; luciferase activity measured 48 hours later; read-out: HCV Genotype 1A Replicon pEC50 (converted)
Procedure: as §1, §2, §3

[5] = test system: ISG56 (Interferon-Stimulated Gene 56) promoter ISRE; assay: ISG56 luciferase reporter assay in HEK 293 cells; type: cell-based; settings: Homo sapiens, HEK293; HEK 293 reporter, 24 hours; 100% = small molecule control test compound; read-out: ISG56 (Average Max Response) %
Procedure: Compounds of the present invention were tested against a HEK (Human Embryonic Kidney) 293 cell line that was stably transfected with a firefly luciferase reporter gene under the control of the ISG56 (Interferon-Stimulated Gene 56) promoter ISRE (Interferon-Stimulated Response Element). While the ISRE is in the opposite orientation of the wild type promoter, literature^1 cites that the response elements are pallindromic and function properly in either orientation. ^1Reich, N., Evans, B., Levy, D., Fahey, D., Knight, E., Damell, J. E. (1987) Interferon-induced transcription of a gene encoding a 15-kDa protein depends on an upstream enhancer element. See, Proc. Natl. Acad. Sci. 84, (6394-6398).
In preparation for the assay, test compounds were serially diluted 3-fold in DMSO from a typical top concentration of 5 mM and plated at 0.2 μL in a 384-well, polystyrene, tissue culture treated plate with lid (Greiner Bio-One North America, Inc., Monroe, N.C.) to generate 11-point dose response curves in the assay. Low control wells (0% response) contained 0.2 μL of DMSO alone, and high control wells (100% response) contained 0.2 μL of a small molecule control test compound.
Frozen stocks of the transfected HEK 293 cells were washed and recovered in DMEM I Ham's F-12 media (Invitrogen Corporation, Carlsbad, Calif.) supplemented with 10% v/v qualified Australian fetal bovine serum (FBS) (Invitrogen Corporation, Carlsbad, Calif.), 1× GlutaMAX™ (Invitrogen Corporation, Carlsbad, Calif.), 1×MEM non-essential amino acids (NEAA) (Invitrogen Corporation, Carlsbad, Calif.) and 500 μg/ml Geneticin® (Invitrogen Corporation, Carlsbad, Calif.). The cells were diluted to 500,000 cells/mL in the supplemented DMEM/Ham's F-12 media, and 20 μL of the cell suspension were added to each well of the previously prepared 384-well compound plate, resulting in 10,000 cells/well. The plate, with lid, were placed in a 37° C., 5% CO2 humidified incubator for 24 hours.
Following incubation, the plates were removed and placed on the bench top without lids to equilibrate to room temperature for 30 minutes. Steady-Glo® (Promega Corporation, Madison, Wis.) was prepared according to the manufacturer's instructions, and 10 μL were added to each plate well. After a twenty minute incubation at room temperature, luminescence was read on a ViewLux™ (PerkinElmer Inc., Waltham, Mass.).
The data for dose responses were plotted as % activation versus compound concentration following normalization using the formula 100*((U−C1)/(C2−C1)), where U was the unknown value, C1 was the average of the low (0% response) control wells and C2 was the average of the high (100% response) control wells. Curve fitting was performed with the equation y=A+((B−A)/(1+(10^x/10^C)^D)), where A was the minimum response, B was the maximum response, C was the log(EC50) and D was the Hill slope. The results for each test compound were recorded as pEC50 values (—C in the above equation) and as max response values at a given concentration.

[6] = test system: JAK/STAT; assay: JAK/STAT activator assay; type: cell-based
[7] = test system: respiratory syncytial virus (RSV); assay: RSV plaque assay on HEp-2 cells; type: cell-based; settings: 1000 U/ml
Procedure: A broad spectrum of antiviral activity of Example 1 was accessed by testing it for potency against other viruses. (See FIG. 8). […] RSV (long form) was inoculated on the layer of HEp-2 cells at multiplicity of infection of <0.001. After 4 hour post infection, the inoculum was replaced with 0.3% agarose containing MEM and various concentration of Example 1 or IFNα. The cells were incubated for up to 5-6 days until the plaques were visible. The cells were then fixed with 3% formaldehyde and stained with neutral red for visualization.

[8] = test system: interferon stimulated genes (ISGs); assay: Expression of interferon stimulated genes in HCV replicon cells (real time RT-PCR); type: cell-based; settings: Example 1 2 μM, IFNα 100 U/ml
From the text: The up-regulation of interferon stimulated genes upon treatment with Example 1 was monitored by quantitative real time RT-PCR using specific primers for each gene, as shown in FIG. 3. […] Total RNA was isolated using RNeasy 96 kit (Qiagen) and converted to cDNA using High Capacity cDNA reverse transcription kit (Applied Biosystems). For real time PCR, the cDNA was used for PCR reactions using TaqMan Fast Universal PCR master mix (Applied Biosystems) and specific primers (Applied Biosystems). As housekeeping genes, actin and GAPDH were used for normalization. Data was calculated by the ΔΔCt method and fold change determined compared to DMSO-treated control samples.

[9] = test system: STAT1 phosphorylation; assay: STAT1 phosphorylation immunoblot in HCV replicon cells; type: cell-based; settings: IFNα 100 U/ml
Procedure: (§4) IFNα (100 U/ml) and DMSO were included as controls. The total cell lysates were analyzed on a 4-20% SDS-PAGE gradient gel and followed by immunoblotting using anti-phopho STAT1 antibody (Cell Signaling). The level of actin was monitored as a loading control. The bands were visualized by the alkaline phosphatase activity conjugated with the secondary antibody (Promega) using ProtoBlot II AP System™ (Promega).

[10] = biological target: T1, human JAK1 (Homo sapiens, UniProt P23458); assay: JAK1 reconstitution in U4A and 2fGH cells (phosphor-STAT1 western blot, Taqman mRNA); type: cell-based; settings: Example 1 10 μM, IFNα 100 U/ml
T1 construct: expressed in transfected cells; host or cells: U4A cells (JAK1-deficient derivative of the human fibroblast line 2fGH), transduced with a baculovirus mammalian expression system
Procedure: 2fGH and U4A cells were obtained from the Cleveland Clinic. 2fGH is a human fibroblast cell line and U4A cell line is a derivative 2fGH harboring a defect in JAK1 expression (Muller, et al., Nature 366, 129-135 (1993)). Green fluoroscent protein (GFP) or human JAK1 was transduced in U4A cells by baculovirus mammalian expression system. After 24 hours post transduction, the cells were treated with DMSO, Example 1 (10 μM), IFNα (100 U/ml), IFNβ (100 U/ml), or IFNγ (100 U/ml). Untransduced U4A cells and 2fGH cells were included as controls for 6 or 18 hours. The cells were harvested at indicated time points and used for detecting phosphor-STAT1 by western blot (FIG. 10, panel A) or for mRNA analysis by Taqman quantitation (FIG. 10, panel B).
as §4, with “The” for “IFNα (100 U/ml) and DMSO were included as controls. The”, “system” for “System™”
Gene expression was measured using TaqMan Fast Universal PCR Master Mix (Applied Biosystems) and gene specific probes and murine primers in HT7900 FAST System (Invitrogen). As housekeeping genes, actin and GAPDH were used for normalization. Data was calculated by the ΔΔCt method and fold change determined compared to non-treated control samples.

T1 sequence (P23458 whole entry): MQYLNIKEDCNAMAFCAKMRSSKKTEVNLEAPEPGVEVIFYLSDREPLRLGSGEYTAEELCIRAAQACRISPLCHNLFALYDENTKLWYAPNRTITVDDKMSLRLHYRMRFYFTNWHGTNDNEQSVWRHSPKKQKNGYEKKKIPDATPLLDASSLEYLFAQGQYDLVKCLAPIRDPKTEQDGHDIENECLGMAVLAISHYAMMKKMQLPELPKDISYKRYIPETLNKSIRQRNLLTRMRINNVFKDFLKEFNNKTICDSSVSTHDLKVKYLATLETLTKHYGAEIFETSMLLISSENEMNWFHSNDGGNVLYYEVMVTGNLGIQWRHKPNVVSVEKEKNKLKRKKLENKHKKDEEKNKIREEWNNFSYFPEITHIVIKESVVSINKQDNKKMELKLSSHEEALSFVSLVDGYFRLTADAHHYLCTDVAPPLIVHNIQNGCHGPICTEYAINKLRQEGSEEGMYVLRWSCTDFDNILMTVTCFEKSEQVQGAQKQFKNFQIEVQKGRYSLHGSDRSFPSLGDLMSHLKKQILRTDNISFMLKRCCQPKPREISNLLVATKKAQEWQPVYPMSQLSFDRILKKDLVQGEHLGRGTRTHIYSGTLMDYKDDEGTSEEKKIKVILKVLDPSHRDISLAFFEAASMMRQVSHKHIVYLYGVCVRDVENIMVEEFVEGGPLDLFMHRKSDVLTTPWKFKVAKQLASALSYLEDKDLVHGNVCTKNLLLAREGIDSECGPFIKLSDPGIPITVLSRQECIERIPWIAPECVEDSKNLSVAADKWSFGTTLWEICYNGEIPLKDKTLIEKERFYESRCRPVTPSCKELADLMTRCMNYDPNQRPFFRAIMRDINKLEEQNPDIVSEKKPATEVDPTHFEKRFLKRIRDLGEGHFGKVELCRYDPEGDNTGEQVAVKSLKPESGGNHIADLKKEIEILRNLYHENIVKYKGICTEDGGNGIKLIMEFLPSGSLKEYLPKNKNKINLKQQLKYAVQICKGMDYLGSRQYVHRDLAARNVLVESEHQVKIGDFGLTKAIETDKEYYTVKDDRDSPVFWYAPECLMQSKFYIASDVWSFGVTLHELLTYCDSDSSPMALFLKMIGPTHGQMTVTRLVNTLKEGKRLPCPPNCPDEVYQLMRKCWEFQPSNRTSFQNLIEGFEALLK

Compound	induction of ISG in dose response [1]	Stat1 phosphorylation (western blot) [2]	EC50 [3] [nM]	EC50 [4] [nM]	Emax [5] [%]	result in the JAK/STAT activator assay [6]	RSV plaques [7]	time of maximum induction of ISGs [8] [h]	STAT1 phosphorylation ([9]; Example 1 2 uM, 1 h, 6 h, 24 h)	time at which phosphorylated STAT1 peaked [9] [h]	activation of STAT1 in U4A cells transduced with JAK1 [10]	p-STAT1 in U4A cells (JAK1 deficient) transduced with GFP [10]
FC(F)(F)c1nc(C(F)(F)F)c2ccc3nc(-c4nnco4)cn3c2n1 [Compound 11, 4-(1,3,4-oxadiazol-2-yl)-10,12-bis(trifluoromethyl)-2,5,11,13-tetraazatricyclo[7.4.0.0^2,^6]trideca-1(9),3,5,7,10,12-hexaene]	correlated with given doses in all tissues	Stat1 phosphorylation	794	251	293							
FC(F)(F)c1cc(C(F)(F)F)c2ccc3nc(-c4nncs4)cn3c2n1 [Compound 89]		did not show phosphorylation of Stat1				negative						
IFNα		Stat1 phosphorylation					significantly reduced the number and size of the plaques	4	induced STAT1 phosphorylation	1	activation of STAT1 was observed	not present
